Source: ChEMBL document CHEMBL1201862, “PubChem BioAssay data set” (2004)
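Method: 48-hour compound exposure of cells in 96-well plates, five concentrations, linear interpolation of endpoints. At the GI50, growth is halved.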 Activity calls are given as the source filed them. Rule as the data show it: active = GI50 up to about 1.1 µM and inactive = higher.

Columns and labels:
Assay in all cases: NCI tumour cell line growth inhibition, 48 h
[1] = test system: ACHN
[2] = test system: MDA-MB-435
[3] = test system: LOX IMVI
[4] = test system: SK-MEL-2
[5] = test system: SNB-75
[6] = test system: MCF7
[7] = test system: PC-3
[8] = test system: NCI-H226
[9] = test system: COLO 205
[10] = test system: A549
[11] = test system: NCI/ADR-RES
[12] = test system: SK-MEL-28
[13] = test system: EKVX
[14] = test system: 786-0
[15] = test system: SR
[16] = test system: UO-31
[17] = test system: RPMI-8226
[18] = test system: OVCAR-4
[19] = test system: M14
[20] = test system: HCC 2998

| Compound | GI50 [1] | GI50 [2] | GI50 [3] | GI50 [4] | GI50 [5] | GI50 [6] | GI50 [7] | GI50 [8] | GI50 [9] | GI50 [10] | GI50 [11] | GI50 [12] | GI50 [13] | GI50 [14] | GI50 [15] | GI50 [16] | GI50 [17] | GI50 [18] | GI50 [19] | GI50 [20] |
| --- | --- | --- | --- | --- | --- | --- | --- | --- | --- | --- | --- | --- | --- | --- | --- | --- | --- | --- | --- | --- |
| CCOC(=O)N1CCC2(CC1)C[C@](Sc1ccccc1)(C(C)=O)[C@H](C)O2 | > 100 µM (inactive) | > 100 µM (inactive) | > 100 µM (inactive) | > 100 µM (inactive) | > 100 µM (inactive) | > 100 µM (inactive) | > 100 µM (inactive) | > 100 µM (inactive) | > 100 µM (inactive) | > 100 µM (inactive) | > 100 µM (inactive) | > 100 µM (inactive) | > 100 µM (inactive) | > 100 µM (inactive) | > 100 µM (inactive) | > 100 µM (inactive) | > 100 µM (inactive) | > 100 µM (inactive) | > 100 µM (inactive) | > 100 µM (inactive) |
| CS/C(C#N)=C(\C#N)SC | 4.33 µM (inactive) | 14 µM (inactive) | 2.5 µM (inactive) | 12.4 µM (inactive) | 52.2 µM (inactive) | 2.22 µM (inactive) | 15.2 µM (inactive) | 2.55 µM (inactive) | 3.06 µM (inactive) | 30.4 µM (inactive) | 18.8 µM (inactive) | 10.7 µM (inactive) | 19 µM (inactive) | 4.89 µM (inactive) | 1.24 µM (inactive) | 4.18 µM (inactive) | 1.88 µM (inactive) | 13.4 µM (inactive) | 2.48 µM (inactive) | 2.99 µM (inactive) |
| Cc1ccc(S(=O)(=O)N/N=C/C(Br)=C(/Br)C(=O)O)cc1 | 2.71 µM (inactive) | 4.43 µM (inactive) | 3.03 µM (inactive) | 14.6 µM (inactive) | 22.1 µM (inactive) | 7.41 µM (inactive) | 8.89 µM (inactive) | 8.55 µM (inactive) | 3.44 µM (inactive) | 19.5 µM (inactive) | 3.69 µM (inactive) | 2.94 µM (inactive) | 10.2 µM (inactive) | 3.42 µM (inactive) | 0.321 µM (active) | 4.66 µM (inactive) | 1.66 µM (inactive) | 6.22 µM (inactive) | 4.53 µM (inactive) | 4.29 µM (inactive) |
| CCC1C(c2cc(OC)c(OC)c(OC)c2)c2cc3c(cc2OC1N1CCCC1)OCO3 (stereo not given) | 4.03 µM (inactive) | 0.277 µM (active) | 2.57 µM (inactive) | 1.98 µM (inactive) | 2.46 µM (inactive) | 0.542 µM (active) | 1.48 µM (inactive) | 3.08 µM (inactive) | 1.55 µM (inactive) | 2.76 µM (inactive) | 1.41 µM (inactive) | 8.87 µM (inactive) | 7.28 µM (inactive) | 3.07 µM (inactive) | 1.17 µM (inactive) | 4.1 µM (inactive) | 3.05 µM (inactive) | 12.7 µM (inactive) | 1.75 µM (inactive) | 2.74 µM (inactive) |
| Nc1ncnc2c1ncn2C1OC(CO)C(O)C1NS(=O)(=O)c1ccccc1 (stereo not given) | > 100 µM (inactive) | > 100 µM (inactive) | > 100 µM (inactive) | > 100 µM (inactive) | > 100 µM (inactive) | > 100 µM (inactive) | > 100 µM (inactive) | > 100 µM (inactive) | > 100 µM (inactive) | > 100 µM (inactive) | > 100 µM (inactive) | > 100 µM (inactive) | > 100 µM (inactive) | > 100 µM (inactive) | > 100 µM (inactive) | > 100 µM (inactive) | > 100 µM (inactive) | > 100 µM (inactive) | > 100 µM (inactive) | > 100 µM (inactive) |
| OC(Cc1cnnc2ccccc12)C(Cl)(Cl)Cl (stereo not given) | > 10 µM (inactive) | > 10 µM (inactive) | > 10 µM (inactive) | > 10 µM (inactive) | > 10 µM (inactive) | > 10 µM (inactive) | > 10 µM (inactive) | > 10 µM (inactive) | > 10 µM (inactive) | > 10 µM (inactive) | > 10 µM (inactive) | > 10 µM (inactive) | > 10 µM (inactive) | > 10 µM (inactive) | > 10 µM (inactive) | > 10 µM (inactive) | > 10 µM (inactive) | > 10 µM (inactive) | > 10 µM (inactive) | > 10 µM (inactive) |
| CC1=CC(=O)C(C(O)(C(F)(F)F)C(F)(F)F)C(C)(C)C1 (stereo not given) | > 10 µM (inactive) | > 10 µM (inactive) | > 10 µM (inactive) | > 10 µM (inactive) | > 10 µM (inactive) | > 10 µM (inactive) | > 10 µM (inactive) | > 10 µM (inactive) | > 10 µM (inactive) | > 10 µM (inactive) | > 10 µM (inactive) | > 10 µM (inactive) | > 10 µM (inactive) | > 10 µM (inactive) | > 10 µM (inactive) | > 10 µM (inactive) | > 10 µM (inactive) | > 10 µM (inactive) | > 10 µM (inactive) | > 10 µM (inactive) |
